Measurements reported in ChEMBL document CHEMBL1134403, “Structure-based approach for the discovery of bis-benzamidines as novel inhibitors of matriptase” (J Med Chem, 2001).

Experiments:
Prothrombin = Prothrombin (Homo sapiens, UniProt P00734); assay: compound was tested for inhibitory activity against Thrombin
[1] = biological target: T1, Suppressor of tumorigenicity 14 protein (Homo sapiens, UniProt Q9Y5Y6); assay: compound was tested for inhibitory activity against Matriptase
T1 sequence (Q9Y5Y6 whole entry): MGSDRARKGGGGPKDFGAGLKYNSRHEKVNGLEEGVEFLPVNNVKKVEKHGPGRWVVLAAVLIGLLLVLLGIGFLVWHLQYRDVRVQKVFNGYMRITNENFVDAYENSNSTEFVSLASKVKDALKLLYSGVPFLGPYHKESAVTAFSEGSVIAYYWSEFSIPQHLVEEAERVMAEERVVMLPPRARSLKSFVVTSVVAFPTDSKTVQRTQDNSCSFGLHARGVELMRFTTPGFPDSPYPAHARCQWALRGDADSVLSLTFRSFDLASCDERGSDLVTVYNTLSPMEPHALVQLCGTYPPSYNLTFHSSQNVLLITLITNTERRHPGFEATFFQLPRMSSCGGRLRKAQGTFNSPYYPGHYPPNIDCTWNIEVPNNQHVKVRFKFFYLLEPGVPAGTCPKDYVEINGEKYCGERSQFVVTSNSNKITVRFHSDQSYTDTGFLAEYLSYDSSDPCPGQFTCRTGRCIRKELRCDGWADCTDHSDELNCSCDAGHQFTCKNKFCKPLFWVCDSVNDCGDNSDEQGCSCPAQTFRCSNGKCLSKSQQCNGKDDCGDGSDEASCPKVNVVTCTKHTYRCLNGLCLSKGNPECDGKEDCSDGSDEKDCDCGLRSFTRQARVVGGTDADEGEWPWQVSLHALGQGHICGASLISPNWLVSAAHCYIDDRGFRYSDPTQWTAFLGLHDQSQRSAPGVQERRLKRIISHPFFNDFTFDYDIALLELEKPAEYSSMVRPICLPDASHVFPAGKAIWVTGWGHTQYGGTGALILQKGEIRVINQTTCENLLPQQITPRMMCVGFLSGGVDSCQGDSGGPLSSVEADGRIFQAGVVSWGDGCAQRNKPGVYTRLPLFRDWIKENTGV

SMILES	Ki (Prothrombin)	Ki [1]
N=C(N)c1ccc(OCCCCCCOc2ccc(C(=N)N)cc2I)cc1	796 nM	–
N=C(N)c1ccc(OCCCOc2ccc(C(=N)N)cc2Br)c(Br)c1 [DIBROMPROPAMIDINE]	946 nM	–
N=C(N)c1ccc(Oc2ccc(Oc3ccc(C(=N)N)cc3)cc2)cc1	2670 nM	–
N=C(N)c1ccc(OCCCCCCOc2ccc(C(=N)N)cc2)cc1 [HEXAMIDINE]	224 nM	–
N=C(N)c1ccc(CCc2ccc(C(=N)N)cc2)cc1	–	> 10000 nM
